# Data taken from patent US7417053B2, “Pyrazolo[1,5-a]pyridine derivatives or pharmaceutically acceptable salts thereof” (Teijin Pharma Limited, priority 2005, dated 2008).
# Where a name gives a salt, the structure may show the parent alone.
# Target: recombinant human MAPKAP-K2 (Homo sapiens, UniProt P49137)
# Assay: Inhibitory activity against MAPKAP-K2 enzyme (33P-ATP peptide phosphorylation)
# Assay type: biochemical
# Settings: recombinant human MAPKAP-K2, ATP 20 μmol/L solution, room temperature 30 min; read-out: Activity Strength (MAPKAP-K2 IC50 value)
# Experimental: General Measurement Method for Determining the Inhibitory Activity Against MAPKAP-K2 enzyme
# (Preparation of Solutions of Compounds)
# Each compound was dissolved in DMSO to prepare a solution with a concentration of 20 mmol/L and this solution was stored at −20° C. This stock solution was diluted with DMSO successively to prepare solutions with 200-fold concentrations of a necessary range. These solutions were further diluted with water at a ratio of 1:20 to prepare solutions with 10-fold concentrations of a necessary range. Each of these solutions (5 μL) was used for each reaction in 50 μL-scale. Through the dilution series of all compounds, the final DMSO concentration was kept at 0.5%. Conventional tests for the compounds were carried out at a final concentration range from 100 μmol/L to 0.03 μmol/L. but in some cases, tests were carried out at lower concentrations, depending on activity.
# (Measurements of MAPKAP-K2 Enzyme Activities)
# To a 5% DMSO aqueous solution (5 μL) of a test compound, a solution (25 μL) containing a peptide substrate [peptide substrate 60 μmol/L, ATP 20 μmol/L, Tris buffer 60 mmol/L (pH 7.5), EGTA 0.2 mmol/L, β-mercaptoethanol 0.2%, magnesium acetate 20 mmol/L, [γ-33P]ATP 0.1 μCi (specific radioactivity ca. 110 TBq/mmol)] was added. The reaction was initiated by adding a solution (20 μL) containing MAPKAP-K2 enzyme [recombinant human MAPKAP-K2 10 mU, Tris buffer […] (pH 7.5), EGTA 0.1 mmol/L, β-mercaptoethanol 0.1%, BSA 0.1%]. After the reaction was carried out at room temperature for 30 min, 200 mmol/L phosphoric acid (50 μL) was added to quench the reaction, and 90 μL of the reaction mixture was adsorbed on a multiscreen PH plate (Millipore). The plate was washed with 100 mmol/L phosphoric acid. After the plate was dried, 30 μL of MicroScint-O (Perkin-Elmer) was added, and the count per minute was measured on a scintillation counter to determine the inhibitory activity. The peptide substrate was Lys-Lys-Leu-Asn-Arg-Thr-Leu-Ser-Val-Ala.
# • % Reference=(X−B)/(Tot−B)×100 • % Inhibition=100−% Reference • X represents count per minute of the well with a test compound applied. • B represents count per minute of the well without the enzyme. • Tot represents count per minute of the well with only DMSO solvent and no test compound applied. (Calculation of MAPKAP-K2 Inhibitory Activity) • IC50 value represents a concentration of compound at which 50% inhibition is observed.
# Sequence of recombinant human MAPKAP-K2 (P49137 whole entry): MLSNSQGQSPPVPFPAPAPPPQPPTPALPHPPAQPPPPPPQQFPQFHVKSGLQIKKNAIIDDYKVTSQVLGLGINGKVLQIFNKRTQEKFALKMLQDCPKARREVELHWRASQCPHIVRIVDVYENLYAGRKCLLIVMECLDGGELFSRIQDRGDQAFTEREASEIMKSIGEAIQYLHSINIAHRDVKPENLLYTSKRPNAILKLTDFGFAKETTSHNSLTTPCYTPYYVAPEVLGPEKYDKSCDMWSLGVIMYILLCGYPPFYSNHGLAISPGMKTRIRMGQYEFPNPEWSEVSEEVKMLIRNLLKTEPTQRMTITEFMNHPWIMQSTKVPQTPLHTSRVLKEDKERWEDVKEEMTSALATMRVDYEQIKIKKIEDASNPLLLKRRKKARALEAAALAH
row,IC50 [nM],SMILES
1,< 200,"CCc1nc2ccc(Nc3c(C)c(N[C@H]4CCCNC4)c(C#N)c4ccnn34)cc2s1 [Compound 118, 5-[((3S)-3-Piperidyl)amino]-7-[(2-ethylbenzothiazol-6-yl)amino]-6-methylpyrazolo[1,5-a]pyridine-4-carbonitrile trifluoroacetate salt]"
2,< 200,"CCOc1ccc(Nc2c(C)c(N[C@H]3CC[C@H](NCC(C)C)CC3)c(C#N)c3ccnn23)cc1 [Compound 110, 7-[(4-Ethoxyphenyl)amino]-6-methyl-5-(trans-{4-[(2-methylpropyl)amino]cyclohexyl}amino)pyrazolo[1,5-a]pyridine-4-carbonitrile trifluoroacetate salt]"
3,< 200,"Cc1c(N[C@H]2CCCNC2)c(C#N)c2ccnn2c1Nc1ccc2ncsc2c1 [Compound 117, 5-[((3S)-3-Piperidyl)amino]-7-(benzothiazol-6-ylamino)-6-methylpyrazolo[1,5-a]pyridine-4-carbonitrile trifluoroacetate salt]"
4,1000 to 10000,"CCOc1ccc(Nc2c(C)c(NC3CCCC(N)C3)c(C#N)c3ccnn23)cc1 (stereo not drawn) [Compound 104, 5-[(3-Aminocyclohexyl)amino]-7-[(4-ethoxyphenyl)amino]-6-methylpyrazolo[1,5-a]pyridine-4-carbonitrile trifluoroacetate salt]"
5,< 200,"CCOc1ccc(Nc2c(CC)c(N[C@H]3CCCNC3)c(C#N)c3ccnn23)cc1 [Compound 105, 5-[(3S)-3-Piperidylamino]-7-(4-ethoxyphenylamino)-6-ethylpyrazolo [1,5-a]pyridine-4-carbonitrile]"
6,1000 to 10000,"CCOc1ccc(Nc2c(C)c(NCC3CCCN3)c(C#N)c3ccnn23)cc1 (stereo not drawn) [Compound 114, 7-[(4-Ethoxyphenyl)amino]-6-methyl-5-[(pyrrolidin-2-ylmethyl)amino]pyrazolo[1,5-a]pyridine-4-carbonitrile trifluoroacetate salt]"
7,< 200,"Cc1c(N[C@H]2CCCNC2)c(C#N)c2ccnn2c1Nc1ccccc1 [Compound 111, 5-[((3S)-(3-Piperidyl))amino]-6-methyl-7-(phenylamino)pyrazolo[1,5-a]pyridine-4-carbonitrile trifluoroacetate salt]"
8,1000 to 10000,"CCOc1ccc(Nc2c(C)c(NCCCNC3CCCCC3)c(C#N)c3ccnn23)cc1 [Compound 120, 5-{[3-(Cyclohexylamino)propyl]amino}-7-[(4-ethoxyphenyl)amino]-6-methylpyrazolo[1,5-a]pyridine-4-carbonitrile trifluoroacetate salt]"
9,200 to 1000,"CCOc1ccc(Nc2c(C3CC3)c(N[C@H]3CCCNC3)c(C#N)c3ccnn23)cc1 [Compound 130, 5-[(3S)-3-Piperidylamino]-7-(4-ethoxyphenylamino)-6-cyclopropylpyrazolo[1,5-a]pyridine-4-carbonitrile]"
